One experiment has as its system HCV replicon 1A. Description: Cell-based HCV Replicon Assay A, replicon 1A. On the procedure: (§1) To measure cell-based anti-HCV activity of compounds of the present invention, two complimentary assays were employed using various replicons. In the first assay (“Replicon Assay A”), replicon cells were seeded at 2000 cells/well in 384-well 384-well flat bottom tissue culture treated clear bottom plate (Corning 3707) in the presence of the test compound. Various concentrations of test compound, typically in 10 serial dilutions, were added to the assay mixture, with the starting concentration ranging from 333.3 nM to […]. The final concentration of DMSO was 0.5%. Fetal bovine serum was 5%, in the assay media. Cells were harvested on day 3 by removing media and washing the cells with a suitable wash buffer. The cells are lysed with the addition of 1× Qiagen lysis buffer (Cat #1062731). The replicon RNA level was measured using real time PCR (TaqMan® EZ RT-PCR, Applied Biosystems 403028) with the following primers and probes: […]
(§2) Cyclophilin RNA was used as endogenous control and was amplified in the same reaction as NS5B (multiplex PCR). The real-time RT-PCR reactions were run on ABI PRISM 7900HT Sequence Detection System using the following program: 50° C. for 2 minutes, 60° C. for 30 minutes, 95° C. for 5 minutes, 40 cycles of 94° C. for 20 sec, 55° C. for 1 minutes.
(§3) The amount of HCV replicon RNA per cell is quantified using a linear regression curve for a known nanogram (ng) amount of HCV replicon total RNA. This is established by plotting the Cycle Threshold values (Ct) from the Neo probe and primer set versus the log (ng) for each HCV replicon total RNA standard. The amount of HCV RNA for each replicon sample is calculated by taking the sample's Ct value, minus the line intercept, divided by the slope of the line. Similarly, the amount of Cyclophilin mRNA per cell is also quantified using a linear regression curve for a known nanogram (ng) amount of HCV replicon total RNA. Again, this is established by plotting the Cycle Threshold values (Ct) from the Cyclophilin probe and primer set versus the log (ng) for each HCV replicon total RNA standard.
(§4) Data was obtained for various compounds of the present invention using the methods described in the Example above, and is presented in the table immediately below. Data for replicons 1A, 1AY93H and 2B were obtained using Replicon Assay A and data for replicons 1AQ30D and 1B were obtained using Replicon Assay B.

The test system of another experiment is HCV replicon 2B. The experiment is described as follows: Cell-based HCV Replicon Assay A, replicon 2B. Conditions: for IC50: Hepatitis C virus, read-out: 2B IC50 (nM), replicon 2B. On the procedure: as §1, §2, §3, §4
In a further experiment the test system is HCV replicon 1AY93H. The experiment is described as follows: Cell-based HCV Replicon Assay A, replicon 1AY93H. Conditions: read-out: 1A Y93H IC50, replicon 1AY93H. On the procedure: as §1, §2, §3, §4

pIC50: −log10 of the molar value. Like-named read-outs stand apart in the source and are kept apart here.

Turning to `COC(=O)N[C@H](C(=O)N1CCC[C@H]1c1ncc(-c2cc(F)c3c(c2)OC(c2cnc(-c4ncccn4)s2)n2c-3cc3cc(-c4cnc([C@@H]5CCCN5C(=O)[C@@H](NC(=O)OC)C(C)C)[nH]4)ccc32)[nH]1)C(C)C` (mixture of isomers) [Compound 411], the pIC50 with HCV replicon 1A (Hepatitis C virus) was 10.29.
In the experiment on HCV replicon 1A (Hepatitis C virus), `COC(=O)N[C@H](C(=O)N1CCC[C@H]1c1ncc(-c2cc(F)c3c(c2)OC(c2sc(C)nc2C(F)(F)F)n2c-3cc3cc(-c4cnc([C@@H]5CCCN5C(=O)[C@@H](NC(=O)OC)C(C)C)[nH]4)ccc32)[nH]1)C(C)C` (mixture of isomers) [Compound 426] gave a pIC50 of 11.66.
On to `COC(=O)N[C@H](C(=O)N1CCC[C@H]1c1ncc(-c2cc(F)c3c(c2)OC(c2cncs2)n2c-3cc3cc(-c4cnc([C@@H]5CCCN5C(=O)[C@@H](NC(=O)OC)C(C)C)[nH]4)ccc32)[nH]1)C(C)C` (single isomer, unassigned) [Compound 1], for which, in the experiment with HCV replicon 2B (read-out: 2B IC50, replicon 2B), the pIC50 was 9.06.
For `COC(=O)N[C@H](C(=O)N1CCC[C@H]1c1ncc(-c2cc(F)c3c(c2)OC(c2cnns2)n2c-3cc3cc(-c4cnc([C@@H]5CCCN5C(=O)[C@@H](NC(=O)OC)C(C)C)[nH]4)ccc32)[nH]1)C(C)C` (single isomer, unassigned) [Compound 4], the pIC50 in the experiment with HCV replicon 2B (read-out: 2B IC50, replicon 2B) is 9.01; with HCV replicon 1AY93H it was 8.86.
On to `COC(=O)N[C@H](C(=O)N1CCC[C@H]1c1ncc(-c2cc(F)c3c(c2)OC(c2nnc(C)s2)n2c-3cc3cc(-c4cnc([C@@H]5CCCN5C(=O)[C@@H](NC(=O)OC)C(C)C)[nH]4)ccc32)[nH]1)C(C)C` (single isomer, unassigned) [Compound 5], for which the pIC50 in the experiment with HCV replicon 2B (read-out: 2B IC50, replicon 2B) is 8.51.
With `COC(=O)N[C@H](C(=O)N1CCC[C@H]1c1ncc(-c2cc(F)c3c(c2)OC(c2nnc(C)s2)n2c-3cc3cc(-c4cnc([C@@H]5CCCN5C(=O)[C@@H](NC(=O)OC)C(C)C)[nH]4)ccc32)[nH]1)C(C)C` (single isomer, unassigned) [Compound 6], the IC50 with HCV replicon 2B was determined as 1.75 nM.
For the compound `COC(=O)N[C@H](C(=O)N1CCC[C@H]1c1ncc(-c2cc(F)c3c(c2)OC(c2nc(C4CC4)cs2)n2c-3cc3cc(-c4cnc([C@@H]5CCCN5C(=O)[C@@H](NC(=O)OC)C(C)C)[nH]4)ccc32)[nH]1)C(C)C` (single isomer, unassigned) [Compound 11], the pIC50 is 8.22 in the experiment with HCV replicon 2B (read-out: 2B IC50, replicon 2B) and 7.84 in the experiment on HCV replicon 1AY93H.
For `COC(=O)N[C@H](C(=O)N1CCC[C@H]1c1ncc(-c2cc(F)c3c(c2)OC(c2nc(C4CC4)cs2)n2c-3cc3cc(-c4cnc([C@@H]5CCCN5C(=O)[C@@H](NC(=O)OC)C(C)C)[nH]4)ccc32)[nH]1)C(C)C` (single isomer, unassigned) [Compound 12] the same measures were 8.66 and 9.74.
Turning to `COC(=O)N[C@H](C(=O)N1CCC[C@H]1c1ncc(-c2cc(F)c3c(c2)OC(c2cnc(C(F)F)s2)n2c-3cc3cc(-c4cnc([C@@H]5CCCN5C(=O)[C@@H](NC(=O)OC)C(C)C)[nH]4)ccc32)[nH]1)C(C)C` (single isomer, unassigned) [Compound 19], the pIC50 in the experiment with HCV replicon 2B (read-out: 2B IC50, replicon 2B) was 9.03; in the experiment on HCV replicon 1AY93H, 8.91.
As to `COC(=O)N[C@H](C(=O)N1CCC[C@H]1c1ncc(-c2cc(F)c3c(c2)OC(c2cnc(C4CC4)s2)n2c-3c(F)c3cc(-c4cnc([C@@H]5CCCN5C(=O)[C@@H](NC(=O)OC)C(C)C)[nH]4)ccc32)[nH]1)C(C)C` (single isomer, unassigned) [Compound 22], the negative-log IC50 (pIC50) in the experiment with HCV replicon 2B (read-out: 2B IC50, replicon 2B) is 9.36; in the experiment with HCV replicon 1AY93H, 9.07.
In the case of `COC(=O)N[C@H](C(=O)N1CCC[C@H]1c1ncc(-c2cc(F)c3c(c2)OC(c2cnc(C4CCCC4)s2)n2c-3cc3cc(-c4cnc([C@@H]5CCCN5C(=O)[C@@H](NC(=O)OC)C(C)C)[nH]4)ccc32)[nH]1)C(C)C` (single isomer, unassigned) [Compound 26], the pIC50 was 9.35 in the experiment on HCV replicon 2B (read-out: 2B IC50, replicon 2B) and 9.90 in the experiment on HCV replicon 1AY93H.
For `COC(=O)NC(C(=O)N1CCC[C@H]1c1ncc(-c2ccc3c(c2)cc2n3C(c3cnc(-c4ccc(F)cc4)s3)Oc3cc(-c4cnc([C@@H]5CCCN5C(=O)[C@@H](NC(=O)OC)C(C)C)[nH]4)cc(F)c3-2)[nH]1)C1C[C@@H](C)O[C@@H](C)C1` (single isomer, unassigned) [Compound 79], the pIC50 was 11.70 in the experiment with HCV replicon 2B (read-out: 2B IC50, replicon 2B) and 11.39 in the experiment with HCV replicon 1AY93H.
Turning to `COC(=O)N[C@H](C(=O)N1CCC[C@H]1c1ncc(-c2cc(F)c3c(c2)OC(c2cnc(C(C)C)s2)n2c-3cc3cc(-c4cnc([C@@H]5CCCN5C(=O)[C@@H](NC(=O)OC)C(C)C)[nH]4)ccc32)[nH]1)C(C)C` (single isomer, unassigned) [Compound 85], the pIC50 was 8.97 with HCV replicon 2B (read-out: 2B IC50, replicon 2B) and 11.85 in the experiment on HCV replicon 1A (Hepatitis C virus).
Take `CCCc1ncc(C2Oc3cc(-c4cnc([C@@H]5CCCN5C(=O)[C@@H](NC(=O)OC)C(C)C)[nH]4)cc(C)c3-c3cc4cc(-c5cnc([C@@H]6CCCN6C(=O)C(NC(=O)OC)C6CCOC(C)(C)C6)[nH]5)ccc4n32)s1` (single isomer, unassigned) [Compound 226]: in the experiment with HCV replicon 2B, the half-maximal inhibitory concentration (IC50) came out at 0.005 nM.
For `COC(=O)NC(C(=O)N1[C@@H]2C[C@@H]2C[C@H]1c1ncc(-c2ccc3c(c2)cc2n3C(c3cnc(C4CC4)s3)Oc3cc(-c4cnc([C@@H]5CCCN5C(=O)[C@@H](NC(=O)OC)C(C)C)[nH]4)cc(C)c3-2)[nH]1)C1CCOC(C)(C)C1` (single isomer, unassigned) [Compound 227], the IC50 with HCV replicon 2B amounted to 0.016 nM.
`COC(=O)NC(C(=O)N1[C@@H]2C[C@@H]2C[C@H]1c1ncc(-c2ccc3c(c2)cc2n3C(c3cnc(C4CC4)s3)Oc3cc(-c4cnc([C@@H]5CCCN5C(=O)[C@@H](NC(=O)OC)C(C)C)[nH]4)cc(F)c3-2)[nH]1)C1CCOC(C)(C)C1` (single isomer, unassigned) [Compound 314]: the negative logarithm of the IC50 (pIC50) with HCV replicon 2B (read-out: 2B IC50, replicon 2B) was 11.70; in the experiment with HCV replicon 1A, 11.59.
For the compound `COC(=O)NC(C(=O)N1[C@@H]2C[C@@H]2C[C@H]1c1ncc(-c2ccc3c(c2)cc2n3C(c3cnc(C(C)(C)C)s3)Oc3cc(-c4cnc([C@@H]5CCCN5C(=O)[C@@H](NC(=O)OC)C(C)C)[nH]4)cc(F)c3-2)[nH]1)C1CCOC(C)(C)C1` (single isomer, unassigned) [Compound 329], the pIC50 with HCV replicon 2B (read-out: 2B IC50, replicon 2B) was 9.80.
Regarding `COC(=O)NC(C(=O)N1[C@@H]2C[C@@H]2C[C@H]1c1ncc(-c2ccc3c(c2)cc2n3C(c3cnc(C(C)(C)C)s3)Oc3cc(-c4cnc([C@@H]5CCCN5C(=O)[C@@H](NC(=O)OC)C(C)C)[nH]4)cc(F)c3-2)[nH]1)C1CCOC(C)(C)C1` (single isomer, unassigned) [Compound 330], in the experiment with HCV replicon 2B (read-out: 2B IC50, replicon 2B), the pIC50 is 10.80.
Regarding `COC(=O)N[C@H](C(=O)N1CCC[C@H]1c1ncc(-c2cc(F)c3c(c2)OC(c2nc4ccccc4s2)n2c-3cc3cc(-c4cnc([C@@H]5CCCN5C(=O)[C@@H](NC(=O)OC)C(C)C)[nH]4)ccc32)[nH]1)C(C)C` (single isomer, unassigned) [Compound 400], in the experiment on HCV replicon 2B (read-out: 2B IC50, replicon 2B), the pIC50 is < 8.78.
Turning to `COC(=O)N[C@H](C(=O)N1CCC[C@H]1c1ncc(-c2cc(F)c3c(c2)OC(c2cnc(-c4ccncc4)s2)n2c-3cc3cc(-c4cnc([C@@H]5CCCN5C(=O)[C@@H](NC(=O)OC)C(C)C)[nH]4)ccc32)[nH]1)C(C)C` (single isomer, unassigned) [Compound 410], in the experiment with HCV replicon 2B (read-out: 2B IC50, replicon 2B), the pIC50 was 8.82.
Take `COC(=O)N[C@H](C(=O)N1CCC[C@H]1c1ncc(-c2cc(F)c3c(c2)OC(c2cnc(-c4ccc(C)o4)s2)n2c-3cc3cc(-c4cnc([C@@H]5CCCN5C(=O)[C@@H](NC(=O)OC)C(C)C)[nH]4)ccc32)[nH]1)C(C)C` (single isomer, unassigned) [Compound 412]: in the experiment on HCV replicon 2B, the IC50 turned out to be 0.12 nM.
Take `COC(=O)N[C@H](C(=O)N1CCC[C@H]1c1ncc(-c2cc(F)c3c(c2)OC(c2sc(C)nc2C(F)(F)F)n2c-3cc3cc(-c4cnc([C@@H]5CCCN5C(=O)[C@@H](NC(=O)OC)C(C)C)[nH]4)ccc32)[nH]1)C(C)C` (single isomer, unassigned) [Compound 427]: the pIC50 in the experiment with HCV replicon 1A (Hepatitis C virus) is 11.62.
`CCC(CC)c1ncc(C2Oc3cc(-c4cnc([C@@H]5CCCN5C(=O)[C@@H](NC(=O)OC)C(C)C)[nH]4)cc(F)c3-c3cc4cc(-c5cnc([C@@H]6CCCN6C(=O)[C@@H](NC(=O)OC)C(C)C)[nH]5)ccc4n32)s1` (single isomer, unassigned) [Compound 429] gave a pIC50 in the experiment with HCV replicon 1A of 11.92.
Consider `COC(=O)N[C@H](C(=O)N1CCC[C@H]1c1ncc(-c2cc(F)c3c(c2)OC(c2cnc(CC(C)C)s2)n2c-3cc3cc(-c4cnc([C@@H]5CCCN5C(=O)[C@@H](NC(=O)OC)C(C)C)[nH]4)ccc32)[nH]1)C(C)C` (single isomer, unassigned) [Compound 513], for which the pIC50 in the experiment on HCV replicon 2B (replicon 2B, read-out: 2B IC50) was 8.92.

The values are drawn from patent US9555038B2, “Heterocycle-substituted tetracyclic compounds and methods of use thereof for the treatment of viral diseases” (Merck Sharp & Dohme Corp., priority 2013, dated 2017).
